The target in one assay is human P2Y12 receptor (Homo sapiens, UniProt Q9H244). In words: Human P2Y12 recombinant cell membrane binding assay with 33P 2MeS-ADP. To be noted: competition against 33P 2MeS-ADP, membranes of CHO cells with recombinant human P2Y12 receptor. The method, boiled down:
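Competition binding against radiolabeled 2MeS-ADP (1.61 nM as added) on membranes from recombinant human P2Y12 CHO cells, 20 min RT after 15 min compound preincubation, pH 7.4. Filtration then scintillation counting; compounds tested in triplicate from 10 μM final, five-fold dilutions, curve fit with plate-defined min/max.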

Assay [1] has as its system human platelet rich plasma. In words: Inhibition of human platelet aggregation, 96-well assay. The format is cell-based. To be noted: Homo sapiens, Platelet, 20 min. Summed up: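 ADP-induced aggregation read as 650 nm absorbance every minute for 20 min at 37 °C, with shaking between reads. PRP (~3×E8 platelets/ml, diluted with PPP, ACD-A blood from healthy volunteers) was exposed to compound for 5 min before adding a 40 μM ADP stock (15 μl into 150 μl).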

For assay [2], the system named is human platelet rich plasma. As to the kind of experiment: Inhibition of human platelet aggregation, "Born"-method using single cuvettes. To be noted: 0.1 h, ADP-induced aggregation, 6 minutes. The format is cell-based.

IC50 data for seven molecules are collected here from patent publication US8426420B2, “Heterocyclic pyrazole-carboxamidesas P2Y12 antagonists” (Sanofi, priority 2007, dated 2013).

SMILES strings stand for the structures.

What is called IC50 is the midpoint of a concentration-inhibition curve.

Sequence of human P2Y12 receptor (Q9H244 whole entry): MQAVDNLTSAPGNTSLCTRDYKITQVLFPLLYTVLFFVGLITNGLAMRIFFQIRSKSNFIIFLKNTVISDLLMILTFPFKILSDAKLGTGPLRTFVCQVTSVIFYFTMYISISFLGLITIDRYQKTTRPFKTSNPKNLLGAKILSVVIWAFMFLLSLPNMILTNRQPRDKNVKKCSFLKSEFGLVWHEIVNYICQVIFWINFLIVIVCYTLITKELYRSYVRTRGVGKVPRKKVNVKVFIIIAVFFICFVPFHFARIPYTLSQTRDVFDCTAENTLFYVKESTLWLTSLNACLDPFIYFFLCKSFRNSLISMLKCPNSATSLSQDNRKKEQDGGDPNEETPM

With `CCCCOC(=O)N1CCN(C(=O)[C@H](CCC(=O)O)NC(=O)c2cc(OCC(=O)N3CCC[C@H]3C(=O)NCC(F)(F)F)n(-c3ccccc3)n2)CC1` [Example 123, 4-{(S)-4-Carboxy-2-[(5-{2-[(S)-2-(2,2,2-trifluoro-ethylcarbamoyl)-pyrrolidin-1-yl]-2-oxo-ethoxy}-1-phenyl-1H-pyrazole-3-carbonyl)-amino]-butyryl}-piperazine-1-carboxylic acid butyl ester], the IC50 on human P2Y12 receptor was 5 nM; in assay [1], 30 nM; in assay [2] it was 2.6 nM.

Take `CCOC(=O)N1CCN(C(=O)[C@H](CCO)NC(=O)c2cc(OCC(=O)N3CCC[C@H]3C(=O)NC3CCC3)n(-c3ccccc3)n2)CC1` [Example 115, 4-[(S)-2-({5-[2-((S)-2-Cyclobutylcarbamoyl-pyrrolidin-1-yl)-2-oxo-ethoxy]-1-phenyl-1H-pyrazole-3-carbonyl}-amino)-4-hydroxy-butyryl]-piperazine-1-carboxylic acid ethyl ester]: the IC50 was found to be 59 nM on human P2Y12 receptor, 210 nM in assay [1] and 120 nM in assay [2].

Turning to `CCCOC(=O)N1CCN(C(=O)[C@H](CCC(=O)O)NC(=O)c2cc(OCC(=O)N3CCC[C@H]3C(=O)NC3CCC3)n(-c3ccccc3)n2)CC1` [Example 162, 4-[(S)-4-Carboxy-2-({5-[2-((S)-2-cyclobutylcarbamoyl-pyrrolidin-1-yl)-2-oxo-ethoxy]-1-phenyl-1H-pyrazole-3-carbonyl}-amino)-butyryl]-piperazine-1-carboxylic acid propyl ester], the IC50 was 8 nM at human P2Y12 receptor, 20 nM in assay [1] and 33 nM in assay [2].

With `CCCCOC(=O)N1CCN(C(=O)[C@H](COCC)NC(=O)c2cc(OCC(=O)N3CCC[C@H]3C(=O)NC3CCC3)n(-c3ccccc3)n2)CC1` [Example 227, 4-[(S)-2-({5-[2-((S)-2-Cyclobutylcarbamoyl-pyrrolidin-1-yl)-2-oxo-ethoxy]-1-phenyl-1H-pyrazole-3-carbonyl}-amino)-3-ethoxy-propionyl]-piperazine-1-carboxylic acid butyl ester], the IC50 on human P2Y12 receptor came to 16 nM; in assay [1], 130 nM; in assay [2], 130 nM.

Consider `CCCCOC(=O)N1CCN(C(=O)[C@H](CCOC)NC(=O)c2cc(OCC(=O)N3CCC[C@H]3C(=O)NC3CCC3)n(-c3ccccc3)n2)CC1` [Example 231, 4-[(S)-2-({5-[2-((S)-2-Cyclobutylcarbamoyl-pyrrolidin-1-yl)-2-oxo-ethoxy]-1-phenyl-1H-pyrazole-3-carbonyl}-amino)-4-methoxy-butyryl]-piperazine-1-carboxylic acid butyl ester], for which the IC50 turned out to be 19 nM on human P2Y12 receptor, 70 nM in assay [1] and 30 nM in assay [2].

Regarding `CCCCOC(=O)N1CCN(C(=O)[C@@H](C)NC(=O)c2cc(OCC(=O)N3CCC[C@H]3C(=O)NC3CCC3)n(-c3ccccc3)n2)CC1` [Example 184, 4-[(R)-2-({5-[2-((S)-2-Cyclobutylcarbamoyl-pyrrolidin-1-yl)-2-oxo-ethoxy]-1-phenyl-1H-pyrazole-3-carbonyl}-amino)-propionyl]-piperazine-1-carboxylic acid butyl ester], the values for the concentration for half-maximal inhibition (IC50) (at human P2Y12 receptor; in assay [1]; in assay [2]) were 18 nM, 280 nM and 80 nM, respectively.

With `CCCNC(=O)[C@@H]1CCCN1C(=O)COc1cc(C(=O)N[C@@H](CCC(=O)O)C(=O)N2CCN(C(=O)OCC)CC2)nn1-c1ccccc1` [Example 9, 4-{(S)-4-Carboxy-2-[(5-{2-[(S)-2-propylcarbamoyl-pyrrolidin-1-yl]-2-oxo-ethoxy}-1-phenyl-1H-pyrazole-3-carbonyl)-amino]-butyryl}-piperazine-1-carboxylic acid ethyl ester], the half-maximal inhibitory concentration (IC50) came to 172 nM at human P2Y12 receptor, 60 nM in assay [1] and 91 nM in assay [2].
